Structures can show the parent of a compound that is named as a salt.
Legend:
[1] = Polymorph stability under accelerated stress conditions (40±2° C., 75±5% RH), by XRD; assay type: physicochemical; conditions: accelerated high humidity stress conditions
[2] = Thermal stability of polymorph form on heating at 60-70° C., examined by XRPD; assay type: physicochemical; conditions: for Polymorph form detected after heating: oil bath 60-70° C., XRPD

XRD spectra after storage [1]: essentially the same and unchanged
Stability to heat ([2]; 70° C./40 hours): stable to heat
Polymorph form detected after heating ([2]; time of heating 10 hours): XRD pattern unchanged
Polymorph form detected after heating ([2]; time of heating 20 hours): XRD pattern unchanged
Polymorph form detected after heating ([2]; time of heating 30 hours): XRD pattern unchanged
Polymorph form detected after heating ([2]; time of heating 40 hours): XRD pattern unchanged
Hygroscopicity (40° C./75% RH): non-hygroscopic
Final moisture content after 60 days 40° C. at humidity of 75% (60 days, 40° C./75% RH, karl-fischer): 5.2%
Initial moisture Content (%) (before storage, karl-fischer): 5.26%
Structure (SMILES): Cc1cn(-c2cc(NC(=O)c3ccc(C)c(Nc4nccc(-c5cccnc5)n4)c3)cc(C(F)(F)F)c2)cn1 [Nilotinib hydrochloride]
